Experimental data taken from patent US7030093B2, “Antibiotic coating for porous bodies and method for its production as well as its use” (HERAEUS Kulzer GmbH & Co. KG, priority 2002, dated 2006).

Assay: Release of the antibiotic from the salts in an aqueous environment (finding in words)
Format: physicochemical
Settings: method not given

Substance | Release of the underlying antibiotic in an aqueous environment
Amikacin laurate | in a delayed fashion
amikacin myristate | in a delayed fashion
amikacin dodecyl sulfate | in a delayed fashion
